Test [1] relates to luteinizing hormone (LH) secretion. Conditions: cited from earlier work. The source says: G-protein-coupled receptors (GPCRs) are the largest family of cell surface receptors that communicate extracellular stimuli to the cell interior[1]. Biased ligands are of particular interest because they offer the possibility to design a novel class of therapeutic agents. In some GPCRs, biased ligands that preferentially activate G-protein-dependent signaling have therapeutic potential. […] Most descriptions of biased ag ...

Test [2] has as its system Galr2–β-arrestin2–clathrin complex. Kind of test: β-arrestin2–clathrin interactions (NanoBit). Conditions: 30 μM cmpd101 (GRK2/3 inhibitor) pretreatment; 10 μM agonist. Type of test: cell-based, human. The source says:
The interaction between β-arrestin2 and clathrin induced by the activation of Galr2 was examined using the NanoBit technology. We measured real-time association of the protein complex Galr2–β-arrestin2–clathrin. We constructed β-arrestin2 and clathrin subunit A tagged with LgBit or SmBit at the C or N termini and screened eight different plasmid combinations, out of which only one combination (β-arrestin2–LgBit:SmBit–clathrin) responded to ligand stimulation (Fig. 3, Supplementary Fig. 3). Before ligand stimulation, Galr2, β-arrestin2, and clathrin were not in close proximity and so the basal luminescence was very low. […] A time course experiment was initially performed to determine the time at which the maximal increase in luminescence occurred following agonist stimulation. All ligands except for Fmoc-dA4-dQ14 induced different fold increase in luminescence immediately after ligand treatment (Fig. 3b). […] Galanin- and Spexin-induced increases in luminescence were attenuated by pretreatment of cmpd101, a G-protein-coupled receptor kinase 2/3 (GRK2/3) inhibitor, indicating contribution of GRK2/3 in the formation of Galr2–β-arrestin2–clathrin complex (Fig. 3).
The arrows indicate the time when the cells were treated with different ligands. […] The results are expressed as mean ± s.e.m. of three experiments performed in triplicate. Each triplicate was averaged before calculating the s.e.m.
(§1) Quantification of bias between each pathway was performed using Galanin as a reference ligand. All incubations for the different signaling assays were performed in serum-free medium to prevent peptide degradation.
One day before transfection, cells were seeded in 96-well plates at a density of 2.5 × 10^4 cells per well. A mixture containing 35 ng β-arrestin construct containing the LgBit or SmBit, 35 ng clathrin subunit A containing one of the two domains of Nluc and 30 ng untagged receptor, and 0.2 μl Lipofectamine 2000 (Invitrogen) was prepared and added to each well. We followed the assay manufacturer’s instructions and tested eight β-arrestin-clathrin plasmid combinations. In only one plasmid combination we were able to observe luminescent signal and it was chosen for further experiments. At 24 h post transfection, medium was aspirated and replaced with 100 μl OPTIMEM at room temperature. After a 10-min incubation, 25 μl substrate (furimazine) was added and the luminescence was monitored once every minute for 10 min. Then, 10 μl ligand was added to each well and the luminescence values were recorded immediately and once every minute for 1 h (Synergy 2 Multi-Mode Microplate Reader BioTek).

In a further test the test system is Galr2. Nature of the test: Galr2 internalization assay based on HiBiT technology. Type of test: cell-based, human. The conditions noted are these: 30 μM Cmpd101 30 min; 25 μM PitStop 2 (clathrin) 15 min; 80 μM Dynasore (dynamin) 40 min; Galanin 30 min. Here is the method: The HiBiT protein tagging system, like NanoBiT technology, consists of two subunits: the large fragment (LgBiT) with 156 amino acids and the small fragment of Nluc (SmBiT-High-affinity) with only 11 amino acids that has a very high affinity to LgBit. To quantify Galr2 at the cell surface, cells expressing Galr2 tagged with the SmBiT-High-affinity were treated with cell-impermeable LgBiT along with the Nluc substrate furimazine. SmBiT-High-affinity-Galr2 on the cell surface binds to LgBiT which produces a luminescent signal, while SmBiT-High-affinity-Galr2 inside the cells cannot bind to LgBiT (Fig. 4a).
Fig. 4 Internalization of Galr2. a Schematic representation of the internalization assay. […] Before ligand stimulation, cells were pretreated with 30 μM Cmpd101 (a GRK2/3 inhibitor) for 30 min, 25 μM PitStop 2 (a Clathrin inhibitor) for 15 min, and 80 μM Dynasore (a Dynamin inhibitor) for 40 min. […] Remaining cell surface receptors were determined by measuring the luminescent signal produced by the binding between LgBiT and the Galr2-SmBiT-High affinity. Each data point represents mean ± s. e. m. of two independent experiments performed in triplicate
as §1
Internalization assays were performed using the Nano-Glo HiBiT extracellular detection system acquired from Promega Corporation (Cat. No. N2421). The day before transfection, HEK293 cells were seeded in 96-well plates at a density of 2.5 × 10^4 cells per well. The following day, cells were transfected with a mixture prepared containing 0.5 ng of SmBiT-high-affinity-Galr2 construct and 0.2 μl Lipofectamine 2000 (Invitrogen) added to each well. […] Then luminescence values were recorded immediately (Synergy 2 Multi-Mode Microplate Reader BioTek). […]

Take “galanin-like peptide: galanin-like peptide, a Galanin paralog (APAHRGRGGWTLNSAGYLLGPVLHLPQMGDQDGKRETALEILDLWKAIDGLPYSHPPQPS; Galanin-like peptide; UniProt Q9UBC7 25-84, looked up)”: in test [1], the “LH secretion, rat” value was “stimulates luteinizing hormone (LH) secretion”.
For the compound `Cn1c(CNc2cccc(C(=O)NCc3ccccc3C(F)(F)F)c2)nnc1-c1ccncc1` [cmpd101, reference compound], the “effect of pretreatment on Galanin- and Spexin-induced β-arrestin2–clathrin luminescence increase” value in test [2] is on record as “attenuated”. Besides, in the test with Galr2, the “effect of inhibitor on Galanin-induced Galr2 internalization” value is “partially blocked”.

The record behind these values is article PMC6123711, “Conformational signatures in β-arrestin2 reveal natural biased agonism at a G-protein-coupled receptor” (Communications Biology, 2018).
